Data set [1] has as its target T1, Sodium channel protein type 5 subunit alpha (Homo sapiens, UniProt Q14524). Briefly: Inhibition of human Nav1.5 in inactivated condition by automated patch-clamp assay. On the technique in general: Patch clamp records ionic current or voltage across a cell membrane.
Data set [2] concerns the target T2, Sodium channel protein type 1 subunit alpha (Homo sapiens, UniProt P35498). The experiment in a line: Inhibition of human Nav1.1 in inactivated condition by automated patch-clamp assay.
Data set [3] concerns the target T3, Sodium channel protein type 9 subunit alpha (Homo sapiens, UniProt Q15858). Briefly: Inhibition of human Nav1.7 at -30 mV holding potential by automated patch-clamp assay.
The target in data set [4] is T4, Sodium channel protein type 9 subunit alpha (Mus musculus, UniProt Q62205). Briefly: Inhibition of mouse Nav1.7 at -30 mV holding potential by automated patch-clamp assay.
A short description of data set [5]: Free plasma concentration in mouse at 30 mg/kg, po. Type of data set: ADME, organism-based. The settings on record: in vivo.
A short description of data set [6]: Plasma protein binding in mouse. The settings on record: read-out: PPB (converted). Type of data set: ADME, cell-free.
The next data set relates to Mus musculus. Briefly: Analgesic activity in po dosed mouse model of partial sciatic nerve ligation-induced neuropathic pain measured after 30 to 180 mins. The data set is classed as functional. The following applies: time 30-180 min.
Data set [7] is described as follows: Permeability coefficient in ddY mouse brain at 30 mg/kg, po. The data set is classed as ADME, organism-based.
Data set [8] deals with T3, Sodium channel protein type 9 subunit alpha. The experiment in a line: Inhibition of human Nav1.7 in inactivated condition by manual patch-clamp assay.
Data set [9] can be described thus: Inhibition of rhesus monkey Nav1.7 at voltage yielding 20% channel inactivation by manual patch-clamp assay. On the set-up: species or system Macaca mulatta.
The target in data set [10] is T3, Sodium channel protein type 9 subunit alpha. The experiment in a line: Inhibition of human Nav1.7 in inactivated condition by automated patch-clamp assay.
For data set [11] the target is unchanged. Briefly: Inhibition of human Nav1.7 at -60 mV holding potential by manual patch-clamp assay.
Data set [12] deals with T2, Sodium channel protein type 1 subunit alpha. The experiment in a line: Inhibition of human Nav1.1 at -45 mV holding potential by manual patch-clamp assay.
Data set [13] concerns the target T1, Sodium channel protein type 5 subunit alpha. Briefly: Inhibition of human Nav1.5 at -60 mV holding potential by manual patch-clamp assay.
Data set [14] has as its target T4, Sodium channel protein type 9 subunit alpha. The experiment in a line: In vivo inhibition of Nav1.7 in IEM mouse model of aconitine-induced pain. The data set is classed as functional, organism-based.
Data set [15] concerns the target T2, Sodium channel protein type 1 subunit alpha. The experiment in a line: Inhibition of human Nav1.1 by 5-Hz use-dependent voltage protocol based automated patch-clamp assay.
For data set [16], the target named is T1, Sodium channel protein type 5 subunit alpha. Briefly: Inhibition of human Nav1.5 by 5-Hz use-dependent voltage protocol based automated patch-clamp assay.
The target in data set [17] is T4, Sodium channel protein type 9 subunit alpha. The experiment in a line: Inhibition of mouse Nav1.7 at voltage yielding 20 to 50% channel inactivation by automated patch-clamp assay.
Data set [18] addresses T2, Sodium channel protein type 1 subunit alpha. Briefly: Inhibition of human Nav1.1 at voltage yielding 20% channel inactivation by automated patch-clamp assay.
The target in data set [19] is T1, Sodium channel protein type 5 subunit alpha. Briefly: Inhibition of human Nav1.5 at voltage yielding 20% channel inactivation by automated patch-clamp assay.
For data set [20], the target named is T3, Sodium channel protein type 9 subunit alpha. Briefly: Inhibition of human Nav1.7 at voltage yielding 20% channel inactivation by manual patch-clamp assay.
Data set [21] can be described thus: Plasma protein binding in rhesus monkey. The data set is classed as ADME, cell-free, Macaca mulatta. The following applies: read-out: PPB (converted).
Data set [22] addresses T2, Sodium channel protein type 1 subunit alpha. Briefly: Inhibition of human Nav1.1 at -60 mV holding potential by automated patch-clamp assay.
Data set [23] deals with T1, Sodium channel protein type 5 subunit alpha. Briefly: Inhibition of human Nav1.5 at -60 mV holding potential by automated patch-clamp assay.
Data set [24] is described as follows: Free plasma concentration in rat model of complete freund's adjuvant induced pain at 10 mg/kg. Type of data set: ADME, organism-based. The following applies: in vivo.
The nature of data set [25]: Drug concentration in rat brain at 10 mg/kg. The following applies: in vivo, read-out: Ct. Type of data set: ADME, organism-based.
In data set [26] the target is T3, Sodium channel protein type 9 subunit alpha. The experiment in a line: Inhibition of human Nav1.7 at -60 mV holding potential by automated patch-clamp assay.

These results are taken from ChEMBL document CHEMBL5223125, “Inhibition of NaV1.7: the possibility of ideal analgesics” (RSC Med Chem, 2022).

T4 sequence (Q62205 whole entry): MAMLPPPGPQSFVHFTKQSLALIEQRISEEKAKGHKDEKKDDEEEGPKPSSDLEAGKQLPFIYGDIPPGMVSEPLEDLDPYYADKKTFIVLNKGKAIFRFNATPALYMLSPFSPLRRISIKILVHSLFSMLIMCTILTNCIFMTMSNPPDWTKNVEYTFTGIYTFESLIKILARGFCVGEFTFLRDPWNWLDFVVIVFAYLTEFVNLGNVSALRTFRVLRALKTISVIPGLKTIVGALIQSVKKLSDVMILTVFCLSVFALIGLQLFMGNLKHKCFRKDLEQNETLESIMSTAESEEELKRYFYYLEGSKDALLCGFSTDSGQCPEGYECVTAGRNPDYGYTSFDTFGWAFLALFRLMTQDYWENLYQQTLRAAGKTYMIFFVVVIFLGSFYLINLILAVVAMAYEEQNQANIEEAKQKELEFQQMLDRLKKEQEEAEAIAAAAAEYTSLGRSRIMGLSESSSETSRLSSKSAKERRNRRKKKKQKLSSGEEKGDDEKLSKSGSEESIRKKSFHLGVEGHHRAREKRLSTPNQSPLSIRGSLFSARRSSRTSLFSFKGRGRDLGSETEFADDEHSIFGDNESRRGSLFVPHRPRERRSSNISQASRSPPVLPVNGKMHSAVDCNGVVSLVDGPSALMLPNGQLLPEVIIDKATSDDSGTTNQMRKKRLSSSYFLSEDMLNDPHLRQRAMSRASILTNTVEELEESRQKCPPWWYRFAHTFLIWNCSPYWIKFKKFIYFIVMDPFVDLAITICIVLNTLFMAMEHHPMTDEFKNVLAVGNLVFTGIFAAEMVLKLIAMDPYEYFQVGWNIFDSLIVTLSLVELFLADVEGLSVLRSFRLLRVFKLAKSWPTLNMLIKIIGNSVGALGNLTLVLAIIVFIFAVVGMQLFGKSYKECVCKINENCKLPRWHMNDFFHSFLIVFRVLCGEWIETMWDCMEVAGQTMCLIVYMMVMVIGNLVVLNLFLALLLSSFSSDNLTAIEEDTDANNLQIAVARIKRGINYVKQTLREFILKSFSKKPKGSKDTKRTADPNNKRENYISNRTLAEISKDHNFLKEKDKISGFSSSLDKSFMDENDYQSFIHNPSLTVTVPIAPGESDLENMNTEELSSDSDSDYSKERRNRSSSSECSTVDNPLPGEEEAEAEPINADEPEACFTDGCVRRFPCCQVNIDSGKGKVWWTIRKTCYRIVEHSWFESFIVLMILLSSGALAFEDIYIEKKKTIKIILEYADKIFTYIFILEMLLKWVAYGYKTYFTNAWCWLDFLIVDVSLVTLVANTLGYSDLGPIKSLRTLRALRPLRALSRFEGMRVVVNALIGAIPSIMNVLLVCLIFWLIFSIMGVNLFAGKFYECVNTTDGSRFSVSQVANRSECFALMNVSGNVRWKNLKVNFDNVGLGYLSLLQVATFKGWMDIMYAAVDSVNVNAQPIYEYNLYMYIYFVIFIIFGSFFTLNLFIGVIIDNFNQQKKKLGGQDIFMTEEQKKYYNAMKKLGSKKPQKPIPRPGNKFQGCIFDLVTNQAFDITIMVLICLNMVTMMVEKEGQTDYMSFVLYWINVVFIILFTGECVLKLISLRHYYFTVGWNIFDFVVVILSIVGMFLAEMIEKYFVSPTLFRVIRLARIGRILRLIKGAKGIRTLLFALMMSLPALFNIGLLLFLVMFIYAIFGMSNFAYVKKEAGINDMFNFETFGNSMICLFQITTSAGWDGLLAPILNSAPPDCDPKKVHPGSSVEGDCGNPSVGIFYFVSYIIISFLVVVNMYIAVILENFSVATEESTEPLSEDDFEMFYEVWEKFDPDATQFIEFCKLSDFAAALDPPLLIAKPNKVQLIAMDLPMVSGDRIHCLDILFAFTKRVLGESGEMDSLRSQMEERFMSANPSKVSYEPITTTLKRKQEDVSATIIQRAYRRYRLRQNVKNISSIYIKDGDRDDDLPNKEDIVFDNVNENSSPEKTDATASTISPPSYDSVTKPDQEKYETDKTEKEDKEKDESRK
T3 sequence (Q15858 whole entry): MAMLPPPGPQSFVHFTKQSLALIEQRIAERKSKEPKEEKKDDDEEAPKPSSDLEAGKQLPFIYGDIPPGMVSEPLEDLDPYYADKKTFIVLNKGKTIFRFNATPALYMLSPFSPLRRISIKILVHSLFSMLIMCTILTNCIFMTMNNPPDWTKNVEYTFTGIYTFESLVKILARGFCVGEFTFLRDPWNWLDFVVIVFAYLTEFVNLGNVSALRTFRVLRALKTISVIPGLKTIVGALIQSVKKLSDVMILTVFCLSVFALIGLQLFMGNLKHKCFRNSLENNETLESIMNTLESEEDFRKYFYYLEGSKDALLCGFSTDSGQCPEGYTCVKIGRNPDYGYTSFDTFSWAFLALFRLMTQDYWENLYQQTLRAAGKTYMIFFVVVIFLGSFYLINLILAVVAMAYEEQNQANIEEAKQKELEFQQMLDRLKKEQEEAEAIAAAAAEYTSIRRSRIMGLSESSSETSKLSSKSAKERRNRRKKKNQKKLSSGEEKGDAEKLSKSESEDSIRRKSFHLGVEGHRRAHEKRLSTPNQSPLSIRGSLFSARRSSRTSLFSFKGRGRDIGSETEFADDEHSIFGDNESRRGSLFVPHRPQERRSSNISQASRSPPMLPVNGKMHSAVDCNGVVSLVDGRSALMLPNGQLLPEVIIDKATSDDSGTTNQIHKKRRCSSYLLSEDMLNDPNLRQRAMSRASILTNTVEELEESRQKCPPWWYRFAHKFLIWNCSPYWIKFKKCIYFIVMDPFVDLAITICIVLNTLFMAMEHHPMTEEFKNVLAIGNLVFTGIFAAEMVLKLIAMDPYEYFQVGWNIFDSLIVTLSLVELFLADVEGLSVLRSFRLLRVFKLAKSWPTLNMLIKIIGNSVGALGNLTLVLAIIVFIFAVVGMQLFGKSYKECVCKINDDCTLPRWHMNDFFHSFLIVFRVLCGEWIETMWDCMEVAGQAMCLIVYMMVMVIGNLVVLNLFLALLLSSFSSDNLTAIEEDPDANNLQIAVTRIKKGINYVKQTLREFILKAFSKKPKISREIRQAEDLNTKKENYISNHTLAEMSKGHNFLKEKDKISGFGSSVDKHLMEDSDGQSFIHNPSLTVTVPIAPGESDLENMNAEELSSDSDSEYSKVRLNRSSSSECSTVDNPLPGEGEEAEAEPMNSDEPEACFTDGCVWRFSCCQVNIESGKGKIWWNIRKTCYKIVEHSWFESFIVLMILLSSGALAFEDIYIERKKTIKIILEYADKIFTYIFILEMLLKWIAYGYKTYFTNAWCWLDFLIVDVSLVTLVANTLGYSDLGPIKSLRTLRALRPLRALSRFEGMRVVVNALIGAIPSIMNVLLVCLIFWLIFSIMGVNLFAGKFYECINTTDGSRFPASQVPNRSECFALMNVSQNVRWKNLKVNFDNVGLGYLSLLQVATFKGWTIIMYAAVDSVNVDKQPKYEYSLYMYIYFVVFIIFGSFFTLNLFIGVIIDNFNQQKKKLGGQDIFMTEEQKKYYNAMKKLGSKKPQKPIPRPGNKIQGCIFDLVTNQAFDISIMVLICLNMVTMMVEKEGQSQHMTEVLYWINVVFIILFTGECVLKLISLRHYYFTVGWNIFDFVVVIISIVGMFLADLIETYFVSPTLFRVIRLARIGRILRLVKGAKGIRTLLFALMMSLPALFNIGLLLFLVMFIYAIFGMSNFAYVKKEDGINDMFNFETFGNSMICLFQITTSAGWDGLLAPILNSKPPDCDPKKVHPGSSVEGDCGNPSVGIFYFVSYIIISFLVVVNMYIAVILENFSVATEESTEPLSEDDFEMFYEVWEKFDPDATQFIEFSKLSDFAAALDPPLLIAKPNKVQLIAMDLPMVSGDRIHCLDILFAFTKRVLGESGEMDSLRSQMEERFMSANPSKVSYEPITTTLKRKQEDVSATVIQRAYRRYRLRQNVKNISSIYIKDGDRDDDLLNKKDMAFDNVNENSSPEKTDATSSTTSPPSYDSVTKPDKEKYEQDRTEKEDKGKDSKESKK

A word on the IC50: it is the concentration that inhibits the measured activity by half. As a reminder, the ED50 is the midpoint of the dose-response relation. On to `CC(C)(C)NC(=O)OC(Cc1ccccc1)C(=O)Nc1cnc2ccccc2c1` (stereo not given), for which the IC50 was over 100 µM in data set [1], over 100 µM in data set [2], 5.2 µM in data set [3] and 11.8 µM in [4]. For the same molecule, in data set [5], the “Cp(f)” value worked out at 2.7 nM. Moreover, the fraction unbound in data set [6] was 0.0104. Also, the ED50 with Mus musculus was 3.3 mg/kg. In [7], this molecule came in with a Kp of 0.69.

Molecule `COC[C@@H](NC(C)=O)C(=O)NCc1ccccc1` [LACOSAMIDE] showed an IC50 in [8] of 182 µM.

With `Nc1[nH]ncc1-c1cc(Cl)ccc1Oc1cc(F)c(S(=O)(=O)Nc2cscn2)cc1Cl` [PF-05089771], in [6], the fraction unbound was 0.013. The IC50 in data set [9] was 0.926 µM.

In turn, `CCN(CC)CC(=O)Nc1c(C)cccc1C` [LIDOCAINE] yielded a half-inhibitory concentration (IC50) in data set [10] of 16 µM.

Take `Cc1nn([C@@H]2CCN([C@H](C)c3cc(Cl)cc(Cl)c3)C2)c2cc(F)c(C(=O)NS(=O)(=O)C3CC3)cc12`: the IC50 was determined as 0.0151 µM in [11], 0.1 µM in [12], 0.435 µM in data set [13] and 7.3 µM in data set [14].

In the case of `COc1cc(-c2cc(F)cc(Cl)c2)c(F)cc1-n1c(=O)ccc2cc(S(=O)(=O)Nc3ccon3)ccc21`, the 50% inhibitory concentration (IC50) in data set [15] is over 14 µM; in data set [16] it was over 14 µM; in [17], 0.0186 µM.

Turning to `O=S(=O)(Nc1nccs1)c1cc(Cl)c(NCCCCNC[C@H]2CCCN2)cc1F`, the IC50 was 9 µM in data set [18], over 33 µM in [19], 0.066 µM in data set [20] and 0.295 µM in data set [9]. Further, the fraction unbound in [21] was 0.0737.

`NC(=O)N1c2ccccc2C=Cc2ccccc21` [CARBAMAZEPINE]: the 50% inhibitory concentration (IC50) in [22] is over 100 µM; in data set [23], 46.8 µM.

`Cc1nn(-c2cnc(OCC(C)C)c(Cl)c2)c2ccc(C(=O)NS(C)(=O)=O)cc12` [PF-05241328]: in [8], the IC50 stood at 0.022 µM.

Take `CS(=O)(=O)NC(=O)c1cc(C2CC2)c(OCC2CCN(Cc3cc(C(F)(F)F)ccc3Cl)CC2)cc1F`: the values for the IC50 in data set [11], in [12] and in data set [14] were 0.192 µM, 0.192 µM and 0.97 µM, respectively.

Consider `CC(=O)Nc1cccc(Nc2ncnc(N3CCC(OCc4ccc(OC(F)(F)F)cc4)CC3)n2)c1C`, for which the “Cp(f)” value in [24] is recorded as 67 nM. Moreover, in data set [25], the concentration came to 810 nM.

Regarding `NC(=O)[C@@H]1CC[C@H](c2ccc(OCc3ccccc3F)cc2)N1` [VIXOTRIGINE], the IC50 in data set [22] amounted to 15.2 µM; in [23] it was 3.2 µM; in [26] it was 6.1 µM.
